How the values were obtained:
[1] = system: PBMCs from asymptomatic HLA-A*02:01 Chagas disease patients; test: HLA-A*02:01 restriction assay: peptide-pulsed K562-A2 cells as APC, IFN-γ secretion by patient PBMC; assay type: cell-based, human; conditions: K562-A2 cells pulsed with 1 mM peptide 1 h, co-cultured 30 h with PBMC of asymptomatic (IND) patients; positive = IFN-γ at least two folds un-stimulated cells
HLA-A*02:01 = HLA-A*02:01 (Homo sapiens, UniProt P04439, D140Y/D185E/D98H/E176V/E277Q/G131W/G231S/I119V/I121R/I166T/I218V/L300P/L318F/N151K/N90K/P208A/P217A/Q86G/Q94H/R138H/R169H/T345S); test: HLA-A*02:01 binding assay (surface stabilization on TAP-deficient T2 cells); conditions: different peptide concentrations in duplicate, serum-free RPMI, overnight at room temperature, PE anti-HLA-A2 (BB7.2) flow cytometry, referred to 25 μM HB-ENV335-343 peptide
Method: TAP-deficient T2 cells were used for the HLA-A*02:01 binding assays and the K562-A2 cells for the HLA-A*02:01 restriction assay. The cells were cultured in complete RPMI medium supplemented with 10% of inactivated Fetal Calf Serum (iFCS), 2 mM glutamine, and 100 U/ml penicillin. K562-A2 cells, expressing the HLA-A*02:01 molecule were cultured in the presence of […] of G-418, as previously described. The T2 and K562-A2 cells were kindly provided by Dr. Pedro Romero (University of Lausanne) and by Dr Peter Ponsaerts (University of Antwerp, with the permission of Dr. Cedrik Britten from Johanes Gutenberg-University Mainz), respectively.
HLA-A*02:01 surface stabilization test was carried out as described in [42]. Briefly, TAP-deficient T2 cells were loaded with different concentrations of each peptide, in duplicate in serum-free RPMI medium, and incubated overnight at room temperature. Afterwards, the cells were stained with a PE-labeled HLA-A2-specific antibody (BB7.2 clone, BD biosciences) and analyzed by flow cytometry. The high-affinity HLA-A*02:01-binding peptide […] ([…]) was included as internal standard. Affinity data were calculated as the percentage of maximum complex stabilization, as described in [44]. The following equation was used: % of maximal stabilization = 100 x [(mean fluorescence with peptide)–(background mean fluorescence)]/[(mean fluorescence with 25 μM HBENV335-343 peptide)–(background mean fluorescence)]. Background value was obtained with cells incubated in the same conditions without peptide.
The percentage of maximal binding stabilization of these eight TcCA-2 peptides was evaluated using TAP-deficient T2 cells and different concentrations of each peptide. […] The maximal binding affinity is shown for each peptide in Table 1.

Sequence	Chagas disease patient: patients with positive response in relation with the total number of patients per assay [1]	% maximal stabilization (HLA-A*02:01)
SAFGNHASTV [TcCA-2_550-559]	0/9	19.07%
FANAPGVAQV [TcCA-2_452-461]	0/10	46.23%
AIGGGKLPAL [TcCA-2_531-540]	0/9	20.89%
SILQNVHATL [TcCA-2_489-498]	0/8	36.02%

Source: PMC4376724, “Differential Phenotypic and Functional Profiles of TcCA-2 -Specific Cytotoxic CD8^+ T Cells in the Asymptomatic versus Cardiac Phase in Chagasic Patients” (PLoS ONE, 2015)
